Measurements reported in US20240043403A1, “HETEROARYL CARBOXAMIDE COMPOUND” (Astellas Pharma Inc., priority 2020, published 2024).

biological target: human recombinant DGK ξ (Homo sapiens (Human), UniProt Q13574); test: Evaluation of DGK ξ inhibitory effect (ADP-Glo Kinase Assay); type: biochemical; conditions: ADP-Glo luminescence
Description: Test Example 1. Evaluation of DGK ξ Inhibitory Effect
The inhibitory effect of a test compound on human recombinant DGK ξ (Cama Biosciences, Inc., 12-410-20N) was examined by the following method in which detection is performed with ADP-Glo™ Kinase Assay (Promega Corporation).
To a 384-well plate (Greiner Bio-One Co., Ltd.), 3 μL of a DGK ξ enzyme dissolved in an assay buffer (40 mM Tris-HCl pH 7.5, 10 mM MgCl2, 1 mM dithiothreitol (DTT) and 0.1 mg/mL bovine serum albumin (BSA)) (90 ng/mL) was added, and 3 μL of the test compound diluted with the same assay buffer was added so that an intended final concentration was obtained. The mixture was left standing at room temperature for 15 minutes, 3 μL of a substrate (150 μM 1-oleoyl-2-acetyl-sn-glycerol (Sigma-Aldrich Co. LLC), 480 μM phosphatidylserine (Avanti, Inc.) and 150 μM UltraPure-ATP (attached to ADP-Glo)) was then added, and the mixture was left standing at room temperature for 30 minutes to react. Thereafter, 3 μL of an ADP-Glo Reagent was added, and the mixture was left standing at room temperature for 40 minutes to stop the enzyme reaction. Further, 6 μL of a Kinase-Detection Reagent was added, the mixture was left standing at room temperature for 30 minutes, and the luminescence was then measured using ARVO X3 (PerkinElmer, Inc.). The half maximal inhibitory concentration (IC50) was calculated by Sigmoid-Emax model non-linear regression analysis, where the signal value in solvent treatment was set to 0% inhibition and the signal value without addition of the DGK ξ enzyme was set to 100% inhibition. […] In the table. Ex represents the number of each Example described below.

Sequence of human recombinant DGK ξ (Q13574 whole entry): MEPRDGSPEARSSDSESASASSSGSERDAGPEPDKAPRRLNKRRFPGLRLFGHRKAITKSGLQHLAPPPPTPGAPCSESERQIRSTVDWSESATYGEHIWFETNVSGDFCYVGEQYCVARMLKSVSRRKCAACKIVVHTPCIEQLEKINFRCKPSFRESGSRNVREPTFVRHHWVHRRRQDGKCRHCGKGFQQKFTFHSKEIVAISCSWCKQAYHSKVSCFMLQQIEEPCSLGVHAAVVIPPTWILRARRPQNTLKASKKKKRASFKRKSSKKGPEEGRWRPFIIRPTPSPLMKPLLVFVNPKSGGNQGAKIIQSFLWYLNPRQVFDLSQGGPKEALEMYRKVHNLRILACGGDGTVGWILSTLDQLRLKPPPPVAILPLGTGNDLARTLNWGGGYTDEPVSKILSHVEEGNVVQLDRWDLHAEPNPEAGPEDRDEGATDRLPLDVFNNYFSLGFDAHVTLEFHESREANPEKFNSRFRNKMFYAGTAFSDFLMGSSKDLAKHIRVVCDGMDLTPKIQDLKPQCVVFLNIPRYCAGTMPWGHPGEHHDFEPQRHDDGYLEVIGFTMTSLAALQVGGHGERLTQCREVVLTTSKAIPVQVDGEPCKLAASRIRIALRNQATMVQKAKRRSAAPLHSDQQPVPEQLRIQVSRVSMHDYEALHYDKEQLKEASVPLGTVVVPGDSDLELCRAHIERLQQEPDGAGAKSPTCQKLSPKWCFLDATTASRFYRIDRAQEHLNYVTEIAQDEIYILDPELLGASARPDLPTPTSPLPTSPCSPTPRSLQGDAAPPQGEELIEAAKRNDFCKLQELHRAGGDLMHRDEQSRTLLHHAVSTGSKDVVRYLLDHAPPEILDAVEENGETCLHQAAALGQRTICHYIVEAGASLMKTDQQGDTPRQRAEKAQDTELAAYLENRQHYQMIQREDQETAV

Compared with `NC[C@@H]1CCCN(c2c(NC(=O)c3ccn(-c4ccnnc4)n3)ccc(Oc3ccccc3F)c2C(F)(F)F)C1` [Example 34], `Cc1ccccc1Oc1ccc(NC(=O)c2ccn(-c3ccnnc3)n2)c(N2CCC[C@@H](CN)C2)c1C(F)(F)F` [Example 62] is 2.2-fold higher in IC50: 0.0031 µM for the first, 0.0069 µM for the second.

Compared with `Cc1cc(C(=O)Nc2ccc(Oc3ccccc3)c(C(F)(F)F)c2N2CCC[C@@H](CN)C2)nn1-c1ccnnc1` [Example 35], `Cc1cc(C(=O)Nc2ccc(Oc3ccccc3F)c(C(F)(F)F)c2N2CCC[C@@H](CN)C2)nn1-c1ccnnc1` [Example 37] is 2-fold lower in IC50: 0.045 µM for the first, 0.023 µM for the second.

First: O=C(Nc1ccc(Oc2ccccc2F)c(C(F)(F)F)c1N1CCC[C@@H](CNC2CC2)C1)c1ccn(-c2ccnnc2)n1 [Example 36]
Second: CN1CCN(c2c(NC(=O)c3ccn(-c4ccnnc4)n3)ccc(Oc3ccccc3F)c2C(F)(F)F)C[C@@H]1CNC1CC1 [Example 89]
The IC50 of the first is 2-fold higher: 0.055 µM for the first, 0.027 µM for the second. The second is the more potent here.

Going from `CN1CCN(c2c(NC(=O)c3ccn(-c4ccnnc4)n3)ccc(Oc3ccccc3F)c2C(F)(F)F)C[C@@H]1CN` [Example 38] to `CN1CCN(c2c(NC(=O)c3ccn(-c4ccnnc4)n3)ccc(Oc3ccccc3F)c2C(F)(F)F)C[C@H]1CN` [Example 54], the IC50 rises from 0.0041 µM to 0.012 µM (2.9-fold). The first is the more potent here.

Going from `Cc1cn(-c2ccnnc2)nc1C(=O)Nc1ccc(Oc2ccccc2F)c(C(F)(F)F)c1N1CCC[C@@H](CN)C1` [Example 39] to `Cc1cc(C(=O)Nc2ccc(Oc3ccccc3Cl)c(C(F)(F)F)c2N2CCC[C@@H](CN)C2)nn1-c1ccnnc1` [Example 91], the IC50 falls from 0.039 µM to 0.025 µM (1.6-fold).

Going from `CN1CCN(c2c(NC(=O)c3ccn(-c4ccnnc4)n3)ccc(OC3CCCC3)c2C(F)(F)F)C[C@@H]1CN` [Example 40] to `CN1CCN(c2c(NC(=O)c3ccn(-c4ccnnc4)n3)ccc(OC3CCC3)c2C(F)(F)F)C[C@@H]1CN` [Example 51], the IC50 rises from 0.0052 µM to 0.017 µM (3.3-fold). The first is the more potent here.

Compared with `CN1CCN(c2c(NC(=O)c3coc(-c4ccnnc4)n3)ccc(OC3CCCC3)c2C(F)(F)F)C[C@@H]1CN` [Example 41], `N[C@@H]1CCN2CCN(c3c(NC(=O)c4coc(-c5ccnnc5)n4)ccc(OC4CCC4)c3C(F)(F)F)C[C@@H]12` [Example 75] is 14-fold higher in IC50: 0.005 µM for the first, 0.069 µM for the second. The first is the more potent here.

Compared with `NC[C@@H]1CCCN(c2c(NC(=O)c3coc(-c4ccnnc4)n3)ccc(-c3ccccc3F)c2C(F)(F)F)C1` [Example 42], `CNC[C@H]1CN(c2c(NC(=O)c3coc(-c4ccnnc4)n3)ccc(-c3ccccc3F)c2C(F)(F)F)CCN1C` [Example 60] is 5.6-fold lower in IC50: 0.15 µM for the first, 0.027 µM for the second. The second is the more potent here.

Going from `NC[C@@H]1CCCN(c2c(NC(=O)c3ccn(-c4ccnnc4)n3)ccc(-c3ccccc3F)c2C(F)(F)F)C1` [Example 43] to `CNC[C@H]1CN(c2c(NC(=O)c3ccn(-c4ccnnc4)n3)ccc(-c3ccccc3F)c2C(F)(F)F)CCN1C` [Example 59], the IC50 falls from 0.03 µM to 0.011 µM (2.7-fold). The second is the more potent here.

Going from `CNC[C@H]1CN(c2c(NC(=O)c3ccn(-c4ccnnc4)n3)ccc(OC3CCCC3)c2C(F)(F)F)CCN1C` [Example 44] to `CNC[C@H]1CN(c2c(NC(=O)c3ccn(-c4ccnnc4)n3)ccc(OC3CCC3)c2C(F)(F)F)CCN1C` [Example 99], the IC50 rises from 0.0086 µM to 0.033 µM (3.8-fold). The first is the more potent here.

`CN1CCN(c2c(NC(=O)c3ccn(-c4ccnnc4)n3)ccc(Oc3ccccc3Cl)c2C(F)(F)F)C[C@@H]1CN` [Example 46] and `CNC[C@H]1CN(c2c(NC(=O)c3ccn(-c4ccnnc4)n3)ccc(Oc3ccccc3Cl)c2C(F)(F)F)CCN1C` [Example 87] are within 1.5-fold of each other in IC50: 0.0031 µM for the first, 0.0041 µM for the second.

Compared with `CNC[C@H]1CN(c2c(NC(=O)c3coc(-c4ccnnc4)n3)ccc(C3CCCC3)c2C(F)(F)F)CCN1C` [Example 49], `N[C@@H]1CCN2CCN(c3c(NC(=O)c4coc(-c5ccnnc5)n4)ccc(OC4CC4)c3C(F)(F)F)C[C@@H]12` [Example 81] is 14-fold higher in IC50: 0.0078 µM for the first, 0.11 µM for the second.

Going from `CNC[C@H]1CN(c2c(NC(=O)c3ccn(-c4ccnnc4)n3)ccc(C3=CCOCC3)c2C(F)(F)F)CCN1C` [Example 50] to `CNC[C@H]1CN(c2c(NC(=O)c3ccn(-c4ccnnc4)n3)ccc(OC3CC3)c2C(F)(F)F)CCN1C` [Example 88], the IC50 rises from 0.055 µM to 0.11 µM (2-fold).

Compared with `CN1CCN(c2c(NC(=O)c3ccn(-c4ccnnc4)n3)ccc(Oc3ccc(F)cc3)c2C(F)(F)F)C[C@@H]1CN` [Example 52], `CN1CCN(c2c(NC(=O)c3coc(-c4ccnnc4)n3)ccc(Oc3ccc(F)cc3)c2C(F)(F)F)C[C@@H]1CN` [Example 53] is 1.6-fold lower in IC50: 0.046 µM for the first, 0.029 µM for the second.

First: CN1CCN(c2c(NC(=O)c3coc(-c4ccnnc4)n3)ccc(Oc3ccccc3F)c2C(F)(F)F)C[C@H]1CN [Example 55]
Second: CN[C@@H]1CCN2CCN(c3c(NC(=O)c4coc(-c5ccnnc5)n4)ccc(Oc4ccccc4F)c3C(F)(F)F)C[C@@H]12 [Example 83]
The IC50 of the first is 3.4-fold higher: 0.012 µM for the first, 0.0035 µM for the second.

Compared with `CN1CCN(c2c(NC(=O)c3ccn(-c4ccnnc4)n3)ccc(Oc3ccccc3Cl)c2Cl)C[C@@H]1CN` [Example 56], `CNC[C@H]1CN(c2c(NC(=O)c3ccn(-c4ccnnc4)n3)ccc(Oc3ccccc3Cl)c2Cl)CCN1C` [Example 94] is 1.6-fold higher in IC50: 0.00089 µM for the first, 0.0014 µM for the second. The first is the more potent here.

Compared with `CN1CCN(c2c(NC(=O)c3coc(-c4ccnnc4)n3)ccc(Oc3ccccc3Cl)c2Cl)C[C@@H]1CN` [Example 57], `CNC[C@H]1CN(c2c(NC(=O)c3coc(-c4ccnnc4)n3)ccc(Oc3ccccc3Cl)c2Cl)CCN1C` [Example 93] is 6.7-fold higher in IC50: 0.00042 µM for the first, 0.0028 µM for the second.

Going from `NCC1(F)CCCN(c2c(NC(=O)c3ccn(-c4ccnnc4)n3)ccc(Oc3ccccc3F)c2C(F)(F)F)C1` (stereo not drawn) [Example 58] to `N[C@@H]1CCN2CCN(c3c(NC(=O)c4ccn(-c5ccnnc5)n4)ccc(Oc4ccccc4F)c3C(F)(F)F)C[C@@H]12` [Example 77], the IC50 falls from 0.021 µM to 0.0056 µM (3.8-fold). The second is the more potent here.

Compared with `NC[C@@H]1CCCN(c2c(NC(=O)c3ccn(-c4ccnnc4)n3)ccc(Oc3ccccn3)c2C(F)(F)F)C1` [Example 61], `COCCNC[C@@H]1CCCN(c2c(NC(=O)c3ccn(-c4ccnnc4)n3)ccc(Oc3ccccc3F)c2C(F)(F)F)C1` [Example 64] is 3.5-fold lower in IC50: 0.046 µM for the first, 0.013 µM for the second. The second is the more potent here.

First: NC[C@@H]1CCCN(c2c(NC(=O)c3ccn(-c4ccnnc4)n3)ccc(OC3CC3)c2-c2ccccc2)C1 [Example 63]
Second: N[C@@H]1CCN2CCN(c3c(NC(=O)c4ccn(-c5ccnnc5)n4)ccc(OC4CC4)c3C(F)(F)F)C[C@@H]12 [Example 82]
The IC50 of the first is 2.3-fold higher: 0.07 µM for the first, 0.031 µM for the second. The second is the more potent here.

Compared with `NCCOc1cccc(-c2c(NC(=O)c3coc(-c4ccnnc4)n3)ccc(OC3CC3)c2C(F)(F)F)c1` [Example 65], `CNCCOc1cccc(-c2c(NC(=O)c3coc(-c4ccnnc4)n3)ccc(OC3CC3)c2C(F)(F)F)c1` [Example 66] is 8.2-fold higher in IC50: 0.022 µM for the first, 0.18 µM for the second.

`NCCOc1cc(-c2c(NC(=O)c3coc(-c4ccnnc4)n3)ccc(OC3CCC3)c2C(F)(F)F)ccn1` [Example 67] and `NCCOc1cc(-c2c(NC(=O)c3coc(-c4ccnnc4)n3)ccc(OC3CC3)c2C(F)(F)F)ccn1` [Example 68] are within 1.5-fold of each other in IC50: 0.035 µM for the first, 0.024 µM for the second.

`CNCCOc1cc(-c2c(NC(=O)c3coc(-c4ccnnc4)n3)ccc(OC3CCC3)c2C(F)(F)F)ccn1` [Example 69] and `CNCCOc1cc(-c2c(NC(=O)c3coc(-c4ccnnc4)n3)ccc(OC3CC3)c2C(F)(F)F)ccn1` [Example 70] are within 1.5-fold of each other in IC50: 0.06 µM for the first, 0.055 µM for the second.

First: O=C(Nc1ccc(OC2CCC2)c(C(F)(F)F)c1-c1cnn(C2CCNCC2)c1)c1coc(-c2ccnnc2)n1 [Example 71]
Second: O=C(Nc1ccc(OC2CC2)c(C(F)(F)F)c1-c1cnn(C2CCNCC2)c1)c1ccn(-c2ccnnc2)n1 [Example 72]
The IC50 of the first is 3-fold lower: 0.021 µM for the first, 0.062 µM for the second.

Compared with `NCCCn1cc(-c2c(NC(=O)c3coc(-c4ccnnc4)n3)ccc(OC3CCC3)c2C(F)(F)F)cn1` [Example 73], `NCCCn1cc(-c2c(NC(=O)c3ccn(-c4ccnnc4)n3)ccc(OC3CCC3)c2C(F)(F)F)cn1` [Example 74] is 2.7-fold lower in IC50: 0.043 µM for the first, 0.016 µM for the second.

Going from `CN[C@@H]1CCN2CCN(c3c(NC(=O)c4coc(-c5ccnnc5)n4)ccc(Oc4ccccc4)c3C(F)(F)F)C[C@@H]12` [Example 76] to `CN[C@@H]1CCN2CCN(c3c(NC(=O)c4ccn(-c5ccnnc5)n4)ccc(Oc4ccccc4F)c3C(F)(F)F)C[C@@H]12` [Example 78], the IC50 falls from 0.0076 µM to 0.0013 µM (5.8-fold).

Going from `NCCOc1cc(-c2c(NC(=O)c3ccn(-c4ccnnc4)n3)ccc(OC3CCC3)c2C(F)(F)F)ccn1` [Example 79] to `N[C@H]1CCN2CCN(c3c(NC(=O)c4ccn(-c5ccnnc5)n4)ccc(Oc4ccccc4F)c3C(F)(F)F)C[C@H]12` [Example 84], the IC50 falls from 0.0078 µM to 0.0021 µM (3.7-fold).

`CN[C@H]1CCN2CCN(c3c(NC(=O)c4ccn(-c5ccnnc5)n4)ccc(Oc4ccccc4F)c3C(F)(F)F)C[C@H]12` [Example 85] and `CNC[C@@H]1CN(c2c(NC(=O)c3ccn(-c4ccnnc4)n3)ccc(Oc3ccccc3Cl)c2C(F)(F)F)CCN1C` [Example 95] are within 1.5-fold of each other in IC50: 0.0052 µM for the first, 0.0038 µM for the second.

Compared with `CNC[C@H]1CN(c2c(NC(=O)c3cc(C)n(-c4ccnnc4)n3)ccc(Oc3ccccc3F)c2C(F)(F)F)CCN1C` [Example 92], `CNC[C@H]1CN(c2c(NC(=O)c3ccn(-c4ccnnc4)n3)ccc(Oc3ccc(F)cc3F)c2C(F)(F)F)CCN1C` [Example 96] is 3.1-fold lower in IC50: 0.092 µM for the first, 0.03 µM for the second. The second is the more potent here.

Going from `CNC[C@H]1CN(c2c(NC(=O)c3cnn(-c4ccnnc4)n3)ccc(Oc3ccccc3Cl)c2C(F)(F)F)CCN1C` [Example 97] to `CNC[C@H]1CN(c2c(NC(=O)c3coc(-c4ccnnc4)n3)ccc(Oc3ccccc3F)c2Cl)CCN1C` [Example 98], the IC50 falls from 0.012 µM to 0.0075 µM (1.6-fold).
